Measurements reported in patent US20240011976A1, “ADDITIVES FOR REDUCING NON-SPECIFIC INTERACTIONS BETWEEN FLUORESCENT POLYMER CONJUGATES AND CELLS IN A BIOLOGICAL SAMPLE” (Beckman Coulter, Inc., priority 2008, published 2024).
“Also recorded” adds a separate entry of the source.

How the values were obtained:
monocytes/granulocytes = test: Blood sample stained with unconjugated polymer dye SN v605 with and without Empigen BB, flow cytometry; assay type: cell-based; settings: SN v605 without antibody, with EMPIGEN BB, FIG. 2
Description: A blood sample was stained with unconjugated polymer dye SN v605 (without antibody), with and without Empigen BB®, and analyzed in a flow cytometer. […] In FIG. 2, the fluorescent polymer dye SN v605 without antibody was used to stain a blood sample and analyzed in a flow cytometer. […] While not wishing to be bound by any specific theory, it is thought that the polymer is likely adsorbing on the cell surface of monocytes and granulocytes.

granulocytes [1] = test: Non-specific binding of SN 605-CD20 and SN 786-CD103 conjugate lots to granulocytes with and without EMPIGEN BB (MdFI, dot plots); assay type: cell-based; settings: with vs without surfactant (EMPIGEN BB), FIG. 3 and FIG. 6
Description: In order to confirm the effect of EMPIGEN BB®, two lots of SN 605-CD20 conjugates were tested in the presence and absence of EMPIGEN BB®. The mean fluorescence intensity (MFI) was compared to the autofluorescence (negative population median fluorescence intensity (MdFI)) of the monocytes from the unstained sample.
Two lots of SN 786-CD103 conjugates were tested in presence and absence of EMPIGEN BB® and the autofluorescence (negative population MdFI) of the monocyte and granulocyte population is compared against an unstained sample.

granulocytes [2] = test: Anionic surfactant NLS, non-specific staining of CD20-SN v605 on granulocytes, peripheral blood flow cytometry; assay type: cell-based; settings: CD20-SN v605, buffer with BSA, sodium azide and NLS, FIG. 17B
Description: (§1) In this example, different concentrations (0.16%, 0.08%, 0.04% and 0.02% w/v) of NLS was formulated with SN v605 CD20 conjugate in the presence of BSA and sodium azide and stained peripheral blood samples. Flow cytometry was performed following sample staining.

positive lymphocytes = test: Positive lymphocyte signal of SN 428 conjugates with EMPIGEN BB, whole blood flow cytometry; assay type: cell-based; settings: compared to the condition without EMPIGEN
Description: (§2) The efficiency of zwitterionic surfactant EMPIGEN BB® on the reduction of non-specific binding with monocytes was evaluated. Other populations were also studied, namely lymphocytes and granulocytes, to evaluate the non-impact of the detergent on MFI and percentage of cells.
(§3) The experimental conditions were generally as follows: • CD19-SN 428 (lot D19-094, polymer lot RDS-042919 (82.7 kD), 1 dose (0.5 μg/test). • CD22-SN 428 (lot D19-109, polymer lot WX-20190624 (86.4 kD), 1 dose (0.5 μg/test). • CD25-SN 428 (lot D19-107, polymer lot RDS-062419 (72.8 kD), 1 dose (0.5 μg/test). • CD19, CD22 and CD25-BV 421 from Becton Dickinson at 1× commercial dose. • Three doses of EMPIGEN BB®0.06%, 0.12%, and 0.2% prepared in conjugate final formulation. • Added 10 μL sample with 100 μL whole blood. • Tested on 2 donors lysing with VersaLyse (lysing solution, used to lyse red blood cells, Beckman Coulter, Inc.)+Fix, one wash. • Navios flow cytometer acquisition on FL9.
(§4) The required x number of tubes were prepared, wherein “x number of tubes” depends on the performance tested. A calculated volume of conjugated antibody (at required dose) was added to each tube. Whole blood (100 μL) was added in each tube. The tubes were gently vortexed for 15 seconds and incubated for 15 to 20 minutes at room temperature at 18-25° C. and protected from light. […]

[3] = Empigen BB concentration in conjugate formulation and during staining versus CMC; assay type: physicochemical
Description: The micellar concentration was studied in samples and during the staining to be sure not to exceed critical micellar concentration (CMC). […] CMC was studied in the conjugate formulation and during the staining in 100 μL whole blood. Experiments were conducted to evaluate the impact of addition of EMPIGEN BB® on whole blood cell integrity and also on peripheral blood mononuclear cells (PMBCs).

monocytes [4] = test: Monocyte background (non-specific binding) of SN 428 conjugates with EMPIGEN BB, whole blood flow cytometry; assay type: cell-based; settings: 0.06 to 0.20% Empigen BB vs absence of surfactant, FIG. 11
Description: as §2, §3, §4

[5] = 20-25° C.; cited from earlier work
whole blood cells = test: 7-AAD staining, percentage of dead cells in whole blood; assay type: cell-based; settings: up to 0.2% EMPIGEN BB with CD19-SNv428, 7-AAD
Description: The percentage of dead cells in whole blood sample with the 7-AAD was evaluated. 7-AAD is a DNA marker, the staining is positive when the cellular membrane is permeabilized. CD19-SNv428 D19-094 without EMPIGEN BB®@(negative control) and with 0.06%, 0.12%, and 0.2% EMPIGEN BB®, was tested on four donors' whole blood, with the 7-ADD, to evaluate the percentage of dead cells in each condition. The goal of the experiment was to verify if the percentage of dead cells is not increased by the EMPIGEN BB® concentration.
Two whole blood samples that had been preserved for greater than 24 hours were added as positive control of 7-AAD staining.
Protocol for 7-AAD staining: • 100 μl whole blood+10 μl CD19-SNv428+/−Empigen, incubation 20 minutes. • Lyse with Versalyse, one wash, • Resuspension in 500 μl PBS 1× • Add 20 μl of 7-AAD (Ref B88526), incubation 15-20 minutes • Navios flow cytometer acquisition: FL4 for 7-AAD and FL9 for CD19-SNv428

monocytes [6] = test: Anionic surfactant NLS, non-specific staining of CD20-SN v605 on monocytes, peripheral blood flow cytometry; assay type: cell-based; settings: CD20-SN v605, buffer with BSA, sodium azide and Empigen BB, FIG. 17B
Description: as §1

granulocytes/monocytes = test: Protein blockers, non-specific interactions of SN v605-CD20 conjugate with granulocytes/monocytes; assay type: cell-based
Description: The issue of non-specific interaction on monocytes was also observed with conventional tandem dyes (e.g., PC5, PC5.5, PC7, AA700 available from Beckman Coulter, Inc.). To overcome this issue, it was thought that BSA-ox (oxidized BSA) and BSA-Cy5-ox (oxidized Cy5-BSA), which are known protein blockers, might prevent non-specific binding.

## CCCCCCCCCCCC[N+](C)(C)CC(=O)[O-] [EMPIGEN BB®, N,N-dimethyl-N-dodecylglycine betaine]
monocytes/granulocytes
  non-specific binding of polymer dye to monocytes/granulocytes: substantially reduced; also recorded: reduced drastically; also recorded: substantial decrease
Granulocytes [1]
  percentage of non-specifically bound granulocytes (dot plot gate): reduced
Granulocytes [2]
  % population in the gate Grans Non-specific binding: 0.68%
Positive lymphocytes
  variation of the positive signal on lymphocytes: did not induce a significant variation
[3]; 0.2% in the vial
  concentration relative to CMC, formulation in the vial: > CMC within the conjugate formulation
[3]; 0.2%, 2 g/L, 279 g/mol
  Empigen BB concentration, formulation in the vial: 7.2 mM
[3]; 100 μL WB, 10 μl conjugate
  concentration relative to CMC during the staining: < CMC during the staining
[3]; 100 μL WB, 10 μl conjugate, dilution factor 11
  Empigen BB concentration during the staining: 0.65 mM
Monocytes [4]
  non-specific monocyte interactions (negative monocyte MFI): lower percent of non-specific monocyte interactions
[5]
  CMC: 1.6 to 2.1 mM
Whole blood cells
  percentage of dead cells / whole blood cell death: does not induce whole blood cell permeabilization or death; also recorded: didn't induce whole blood cell death; also recorded: not substantially increased
Monocytes [6]
  % population in the gate Mons Non-specific binding: 0.64%

## BSA-Cy5-ox: oxidized Cy5-BSA, known protein blocker
granulocytes/monocytes; FIG. 10
  percentage of non-specifically bound monocytes and granulocytes / controlling non-specific interactions: inefficient; also recorded: not substantially reduced

## BSA-ox: oxidized BSA, known protein blocker
granulocytes/monocytes; FIG. 10
  percentage of non-specifically bound monocytes and granulocytes / controlling non-specific interactions: inefficient
granulocytes/monocytes; FIG. 10, listed as oxidized BSA
  percentage of non-specifically bound monocytes and granulocytes / controlling non-specific interactions: not substantially reduced
